In patent US6075029A, “Xanthine modulators of metabolism of cellular P-450” (Cell Therapeutics, Inc., priority 1998, dated 2000):

Tests used:
[1] = human, in vivo; cited from earlier work
P-4501A2 = target: T1, P-4501A2 (Homo sapiens, UniProt P05177); test: Inhibition of P-450 mediated caffeine metabolism to paraxanthine in human liver microsomes; settings: for activity at 0 h, 100 µM / activity at 5 min, 100 µM / activity at 20 min, 100 µM: human; for inhibition of P-450-mediated caffeine metabolism (in words): human liver microsomes, summary of Table 1
T1 sequence (P05177 1-516): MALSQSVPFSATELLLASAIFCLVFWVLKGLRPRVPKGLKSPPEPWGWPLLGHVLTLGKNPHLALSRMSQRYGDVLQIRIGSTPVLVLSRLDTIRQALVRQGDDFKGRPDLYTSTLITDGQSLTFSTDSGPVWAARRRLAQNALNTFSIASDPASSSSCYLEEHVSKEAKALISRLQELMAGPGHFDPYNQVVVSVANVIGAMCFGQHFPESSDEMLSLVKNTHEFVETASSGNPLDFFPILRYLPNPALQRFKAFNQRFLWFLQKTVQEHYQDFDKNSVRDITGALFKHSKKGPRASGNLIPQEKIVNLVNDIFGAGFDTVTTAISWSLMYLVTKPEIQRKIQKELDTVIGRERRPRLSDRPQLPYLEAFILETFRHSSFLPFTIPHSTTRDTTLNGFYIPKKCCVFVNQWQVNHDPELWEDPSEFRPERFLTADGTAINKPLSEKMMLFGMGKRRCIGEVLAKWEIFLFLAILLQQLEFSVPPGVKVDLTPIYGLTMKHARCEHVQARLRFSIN
Description: The model system directly measures inhibition of P-4501A2-mediated metabolism in the physiological environment of human liver microsomes. Measurement of drug metabolism in a microsome system is directly predictive of liver metabolism in vivo. Thus, microsome data can be used to estimate the in vivo circulating half-life of compounds that are primarily metabolized in the liver.
Microsomes were prepared by standard techniques from four human livers. […] Three sets of enantiomers, CT2408 R&S, CT2410 R&S, and CT2412 R&S, were evaluated for inhibition of caffeine metabolism to paraxanthine by P-450.
Briefly, the inventive compounds were preincubated in microsomes with NADPH at concentrations of 100 μM for 0, 5, and 20 minutes. Samples containing only buffer, LSF, or furafylline were used as controls.
At the end of the preincubation period, the samples were diluted in a solution of NADPH and caffeine. The samples then were incubated for twenty minutes. Hydroxyethyl theophylline was added as an internal standard, and the samples were analyzed for paraxanthine via HPLC. Decreased paraxanthine formation is indicative of inhibition of P-450-mediated caffeine metabolism.
Incubation conditions and analysis of paraxanthine
To 200 μL microsomal suspension (HL-124; 20 mg/mL protein, P-450 specific activity 0.24 nmol/mg protein) and 100 μL 8.0 mM NADPH (Sigma, tetrasodium salt) in 100 mM phosphate buffer pH 7.4 preincubated for 2 minutes at 37° were added 100 μL of test compound solution (400 μM) in phosphate buffer ([…], pH 7.4). The solution then was incubated at 37° with agitation for 0, 5, and 20 minutes at which times 100 μL of the solution was transferred to another tube containing 200 μL 12.5 mM caffeine and 200 μL 5.0 mM NADPH which had been warmed at 37° for 2 minutes. The suspensions then were incubated for 20 minutes, 200 μL acetonitrile added, and the tubes placed on ice.
After all incubations were finished, 50 μL β-hydroxyethyl theophylline (50 μg/mL, HET) was added as an internal standard. Paraxanthine standards were prepared in 0.5 mL phosphate buffer containing 2.0 mg boiled microsomal protein ranging in concentration from 0.433 to 13.9 nmol/sample.
The suspensions then were extracted for 5 minutes with 7.0 mL methylene chloride (Fisher Optima grade), centrifuged at 3,000 g and the aqueous layer aspirated to waste. An aliquot of the organic (5.5 mL) was then transferred to another tube, evaporated to dryness under nitrogen at 30°, and reconstituted in 20% methanol/water.
Thirty microliters of reconstituted sample were then applied to an Hewlett Packard 1050 HPLC system equipped with a Rainin Microsorb™ 4.6×100 mm column with 3 μm C-18 packing. Mobile phase was maintained at 1.0 mL/min and changed from 2:13:85 to 2:20:78 acetonitrile:methanol:25 mM phosphate buffer, pH 5 over 10 minutes, the column was then washed by increasing the acetonitrile to 20% prior to re-equilibration for the next injection. Column eluent was monitored at 285 nm and paraxanthine, HET, and caffeine respectively eluted at 5.3, 6.6, and 9.8 minutes.

P-450IA2 [2] = settings: Lillibridge et al.; cited from earlier work
LSF metabolism = test: Co-administration of furafylline with LSF: circulating half-life of LSF; type: in vivo; settings: co-administered with LSF
caffeine metabolism = settings: cited from earlier work
P-450IA2 [3] = settings: liver; Sesardic et al.; cited from earlier work

Compound | activity at 0 h, 100 µM (P-4501A2; liver microsomes) | activity at 5 min, 100 µM (P-4501A2; liver microsomes) | activity at 20 min, 100 µM (P-4501A2; liver microsomes) | also measured
O=C1CC[C@H](N2C(=O)c3ccccc3C2=O)C(=O)N1 [thalidomide S-isomer] | – | – | – | toxic / side effects [1]: teratogen, causing the birth defects in babies born to mothers using this drug
CC[C@H](CO)NCCN[C@H](CC)CO [ethambutol R,R-enantiomer] | – | – | – | toxic / side effects [1]: can cause blindness
Cc1nc2c([nH]1)c(=O)n(CCCC[C@@H](C)O)c(=O)n2C [CT2408R, (R)-1-(5-Hydroxyhexyl)-3,8-dimethylxanthine] | 95.2% | 73.9% | 46.6% | –
Cc1nc2c([nH]1)c(=O)n(CCCC[C@@H](C)O)c(=O)n2Cc1ccco1 [CT2412R, (R)-3-(2-Furylmethyl)-1-(5-hydroxyhexyl)-8-methylxanthine] | 101% | 82.8% | 56.3% | –
Cc1nc2c(c(=O)n(CCCCC(C)O)c(=O)n2C)n1C (stereo not drawn) [CT2410, 1-(5-Hydroxyhexyl)-3,7,8-trimethylxanthine] | – | – | – | inhibition of P-450-mediated caffeine metabolism (in words) (P-4501A2): Neither CT2410 (1-(5-Hydroxyhexyl)-3,7,8-trimethylxanthine) nor LSF ((R)-1-(5-Hydroxyhexyl)-3,7-dimethylxanthine) had any inhibitory effect
Cn1c(=O)c2c(ncn2C)n(C)c1=O [caffeine, 1,3,7-trimethylxanthine] | – | – | – | site of metabolism (P-450IA2 [2]): P-450IA2 mediates demethylation of caffeine at the N3 position of the xanthine ring
Cc1nc2c([nH]1)c(=O)n(CCCCC(C)O)c(=O)n2Cc1ccco1 (stereo not drawn) [CT2412 R&S, 3-(2-furylmethyl)-1-(5-hydroxyhexyl)-8-methylxanthine] | – | – | – | inhibition of P-450-mediated caffeine metabolism (in words) (P-4501A2): showed similar inhibition
C[C@@H](O)CCCCn1c(=O)c2c(ncn2C)n(C)c1=O [LSF, (R)-1-(5-Hydroxyhexyl)-3,7-dimethylxanthine, reference compound] | 101% | 91% | 85.8% | inhibition of P-450-mediated caffeine metabolism (in words) (P-4501A2): Neither CT2410 (1-(5-Hydroxyhexyl)-3,7,8-trimethylxanthine) nor LSF ((R)-1-(5-Hydroxyhexyl)-3,7-dimethylxanthine) had any inhibitory effect; site of metabolism (P-450IA2 [2]): primary metabolites of LSF and PTX result from modification of the N1 substituent, not the N3 substituent
Cc1nc2c(c(=O)n(CCCC[C@@H](C)O)c(=O)n2C)n1C [CT2410R, 1-(5-Hydroxyhexyl)-3,7,8-trimethylxanthine] | 92.8% | 87.8% | 88.3% | –
Cc1nc2c([nH]1)c(=O)n(CCCC[C@H](C)O)c(=O)n2C [CT2408S, (S)-1-(5-Hydroxyhexyl)-3,8-dimethylxanthine] | 97.2% | 71% | 41.8% | –
O=C1CC[C@@H](N2C(=O)c3ccccc3C2=O)C(=O)N1 [thalidomide R-isomer] | – | – | – | sedative activity [1]: desired sedative activity resided in the R-isomer
CC(C(=O)O)c1ccc2oc(-c3ccc(Cl)cc3)nc2c1 (stereo not drawn) [benoxaprofen] | – | – | – | toxic / side effects [1]: lethal side effects
CC(=O)CCCCn1c(=O)c2c(ncn2C)n(C)c1=O [PTX] | – | – | – | site of metabolism (P-450IA2 [2]): primary metabolites of LSF and PTX result from modification of the N1 substituent, not the N3 substituent
Cc1nc2c([nH]1)c(=O)n(C)c(=O)n2Cc1ccco1 [FRF, 1,8-dimethyl-3-(2'furfuryl)-methylxanthine] | – | – | – | activity at 0 h, 100 µM (P-4501A2; microsomes): 36.8%; activity at 5 min, 100 µM (P-4501A2; microsomes): 13.9%; activity at 20 min, 100 µM (P-4501A2; microsomes): 10.1%; circulating half-life of LSF on co-administration (LSF metabolism): increase the circulating half-life of the methylxanthine compound LSF; circulating half-life of caffeine (caffeine metabolism; by inhibiting N3 demethylation): increases the circulating half-life of caffeine; serum caffeine levels in patients treated (caffeine metabolism; clinical trials, Tarrus et al.): elevated serum caffeine levels; inhibition of P-450IA2 / N3 demethylation of caffeine (P-450IA2 [3]): inhibiting the P-450 isozyme, P-450IA2, which catalyzes N3 demethylation of caffeine in the liver
Cc1nc2c([nH]1)c(=O)n(CCCCC(C)O)c(=O)n2C (stereo not drawn) [CT2408 R&S, 1-(5-Hydroxyhexyl)-3,8-dimethylxanthine] | – | – | – | inhibition of P-450-mediated caffeine metabolism (in words) (P-4501A2): showed similar inhibition
Cc1nc2c(c(=O)n(CCCC[C@H](C)O)c(=O)n2C)n1C [CT2410S, 1-(5-Hydroxyhexyl)-3,7,8-trimethylxanthine] | 101% | 91% | 83.5% | –
Cc1nc2c([nH]1)c(=O)n(CCCC[C@H](C)O)c(=O)n2Cc1ccco1 [CT2412S, (S)-3-(2-Furylmethyl)-1-(5-hydroxyhexyl)-8-methylxanthine] | 98.7% | 75.6% | 51.7% | –
